Values of other authors, collected in paper PMC5733301, “Antitubercular Nitroimidazoles Revisited: Synthesis and Activity of the Authentic 3-Nitro Isomer of Pretomanid” (ACS Medicinal Chemistry Letters, 2017).

Assays:
[1] = test system: M. tb having mutations in the nitroreductase Ddn; set-up: method as in PMID 19209889; settings: ref [22]; cited from earlier work
[2] = test system: M. tb having mutations in the nitroreductase Ddn; set-up: method as in PMID 19209889; settings: ref [22]; cited from earlier work; remark: listed apart in the source

O=[N+]([O-])c1cn2c(n1)O[C@H](COCc1ccc(OC(F)(F)F)cc1)C2 [compound 20]
aerobic MIC99 against Ddn mutant M. tb [1]: > 100 µM
anaerobic MIC90 against Ddn mutant M. tb [2]: 62.5 to 125 µM
